Measurements: article PMC9400670, “Establishing the selective phospholipid membrane coordination, permeation and lysis properties for a series of ‘druggable’ supramolecular self-associating antimicrobial amphiphiles” (Chemical Science, 2022)

Assay: Mouse i.v. blood pharmacokinetic study
Assay type: in vivo, female CD-1 mice
Settings: for enterohepatic recirculation: blood concentration-time profile, in words; for clearance: female, CD-1, mouse, 1 mg/kg, read-out: Cl blood; for clearance / Vd: SSA 3 derived based on AUC0–7h; for Cmax: 2% DMSO/98% H2O
Method: Within these studies SSAs 3 and 5 were dosed at 1 mg kg^−1, to female CD-1 mice (n = 9 per SSA) via an intravenous tail vein bolus dose formulation as solutions in 2% DMSO/98% water. Blood taken from the mouse tail vein was extracted by protein precipitation and SSA concentration calculated. The results of these studies are shown in Fig. 12 and Table 4. page 8: For the purpose of fu and SSA-3 PK determination, samples were analysed using a Waters I-Class ultra-high-performance liquid chromatography (UHPLC) system coupled to a Waters Xevo TQ-XS mass spectrometer. Separation of analytes was achieved using an Accucore Vanquish C18+ column (1.5 µm, 50 x 2.1 mm) at a temperature of 40°C and a binary mobile phase gradient at a flow rate of 0.4 mL/min. Initial LC conditions comprised 66% solvent A (0.1% formic acid + 5 mM ammonium acetate in water), 33% solvent B (0.1% formic acid + 5 mM ammonium acetate in methanol); this was ramped to 63% B at 1.8 min and 95% B at 1.9 min, held for 0.5 min and then immediately returned to initial conditions and held for the remaining 0.5 min of the method. Sample analysis was by electrospray ionisation combined with multiple reaction monitoring in negative ion mode. The capillary voltage was 0.8 kV, desolvation gas was 600°C. For the purpose of apparent permeability determination, samples were analysed using a Waters I- Class ultra-high-performance liquid chromatography (UHPLC) system coupled to a Waters Vion mass spectrometer (Waters, Elstree, UK). Separation of analytes was achieved used an Accucore Vanquish C18+ column (1.5 µm, 50 x 2.1 mm) at a temperature of 40°C and a binary mobile phase gradient at a flow rate of 0.4 mL/min. Initial LC conditions for SSA 1-4 comprised 66% solvent A (0.1% formic acid + 5 mM ammonium acetate in water), 33% solvent B (0.1% formic acid + 5 mM ammonium acetate in methanol); this was ramped to 63% B at 1.8 min and 95% B at 1.9 min, held for 0.5 min and then immediately returned to initial conditions and held for the remaining 0.5 min of the method. Initial LC conditions for SSA 5-10 comprised 54% solvent A (0.1% formic acid + 5 mM ammonium acetate in water), 46% solvent B (0.1% formic acid + 5 mM ammonium acetate in methanol); this was ramped to 67% B at 1.8 min and 95% B at 1.9 min, held for 0.5 min and then immediately returned to initial conditions and held for the remaining 0.5 min of the method. Sample analysis was by electrospray ionisation in negative ion mode. The capillary voltage was 2.5 kV, desolvation gas was 600°C. For the purpose of PK determination of SSA 5, samples were analysed using a Waters I-Class ultra- high-performance liquid chromatography (UHPLC) system coupled to a Waters Xevo TQ-XS mass spectrometer. Separation of analytes was achieved using an Accucore Vanquish C18+ column (1.5 µm, 50 x 2.1 mm) at a temperature of 40°C and a binary mobile phase gradient at a flow rate of 0.4 mL/min. Initial LC conditions comprised 54% solvent A (0.1% formic acid + 5 mM ammonium acetate in water), 46% solvent B (0.1% formic acid + 5 mM ammonium acetate in methanol); this was ramped to 67% B at 1.8 min and 95% B at 1.9 min, held for 0.5 min and then immediately returned to initial conditions and held for the remaining 0.5 min of the method. Sample analysis was by electrospray ionisation combined with multiple reaction monitoring in negative ion mode. The capillary voltage was 0.8 kV, desolvation gas was 600°C. Mean blood concentration-time profile: Within these studies SSAs 3 and 5 were dosed at 1 mg/kg, to female CD-1 mice (n=9 per SSA) via an intravenous tail vein bolus dose formulation as solutions in 2 % DMSO/98 % water. Blood taken from the mouse tail vein was extracted by protein precipitation. SSA concentrations were calculated through UPLC-MS/MS techniques, with tolbutamide as the internal standard. The assay met the acceptance criteria with >7 calibration standards within ± 20% of nominal concentration. The lower limit of quantitation was 2 ng/mL for both compounds. […]

[1] = blood, iv, i.v. 1 mg kg^−1, female CD-1 mice
[2] = i.v. 1 mg kg^−1, female CD-1 mice
[3] = mouse, blood, iv, i.v. 1 mg kg^−1, female CD-1 mice
[4] = mouse, iv, blood, i.v. 1 mg kg^−1, female CD-1 mice

Row | SMILES | Blood concentration of SSA (0.5 h post i.v. dosing) [nM] | Blood concentration of SSA (4.0 h post i.v. dosing) [nM] | enterohepatic recirculation (i.v. 1 mg kg^−1) | clearance [1] [mL/min/kg] | Cl blood as % liver blood flow (LBF) [2] [% LBF] | half-life (mouse, blood, iv, elimination half-life, i.v. 1 mg kg^−1, female CD-1 mice) [min] | Vd [3] [L/kg] | Cmax [4] [nM] | AUC(0-inf) [4] [µM·h] | AUC(0-t) [4] [µM·h] | Tmax [4] [min]
1 | O=C(NCS(=O)(=O)O)Nc1ccccc1-c1nc2ccccc2s1 [SSA 5] | 643 | 11 | did not show any evidence of enterohepatic recirculation | ~31 | 34 | 42 | 0.9 | 4050 | 1.46 | 1.45 | 4.98
2 | O=C(NCS(=O)(=O)O)Nc1ccc(C(F)(F)F)cc1 [SSA 3] | 344 | 99 | undergoing enterohepatic recirculation | 25 | 28 | – | 0.8 | 8090 | – | 2.28 | 4.98
